Measurements taken from PMC6214715 (Journal of veterinary pharmacology and therapeutics, 2018).
Read-outs that look alike come from different tables or passages of the source.

How the values were obtained:
[1] = tested on: dog liver microsomes; format: in vitro ADME; conditions: for formation to metabolism ratio: DLMs, formation rate from (±)-tramadol (Perez Jimenez, 2016) / rate of (+)-M5 formation from the (+)-metabolite; for Km / Vmax: formation of (+)-M5 from substrate
[2] = tested on: cat liver microsomes; format: in vitro ADME; conditions: for formation to metabolism ratio: feline liver microsomes, formation rate from (±)-tramadol (Perez Jimenez, 2016) / rate of (+)-M5 formation from the (+)-metabolite
[3] = tested on: human liver microsomes; format: in vitro ADME; conditions: human liver microsomes; formation rate from (±)-tramadol (Perez Jimenez, 2016) / rate of (+)-M5 formation from the (+)-metabolite
[4] = rats, after tramadol administration; ref Sheikholeslami, 2016; cited from earlier work
[5] = biological target: T1, CYP2D15 (Canis lupus familiaris, UniProt Q29473); assay: in vitro; conditions: dog, recombinant enzyme
T1 sequence (Q29473 1-500): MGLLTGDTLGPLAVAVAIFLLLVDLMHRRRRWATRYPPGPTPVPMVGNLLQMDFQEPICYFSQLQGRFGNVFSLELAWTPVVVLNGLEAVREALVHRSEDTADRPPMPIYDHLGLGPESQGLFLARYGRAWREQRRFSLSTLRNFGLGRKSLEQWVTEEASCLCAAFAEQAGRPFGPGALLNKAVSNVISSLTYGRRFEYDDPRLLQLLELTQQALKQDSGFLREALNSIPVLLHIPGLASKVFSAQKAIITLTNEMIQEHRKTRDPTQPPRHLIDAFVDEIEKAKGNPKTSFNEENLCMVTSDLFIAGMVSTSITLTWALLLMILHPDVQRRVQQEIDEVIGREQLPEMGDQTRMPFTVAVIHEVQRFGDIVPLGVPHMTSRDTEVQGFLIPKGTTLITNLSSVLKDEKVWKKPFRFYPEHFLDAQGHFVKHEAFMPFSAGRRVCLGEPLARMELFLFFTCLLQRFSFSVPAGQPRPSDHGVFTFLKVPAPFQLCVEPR

[6] = tested on: (+)-M5 formation from (+)-M2 in pooled DLMs; assay: in vitro; conditions: dog
[7] = tested on: CYP2D15; conditions: CYP2D15 mediated dextromethorphan o-demethylation in DLMs; ref Aidasani, 2008; cited from earlier work
[8] = dog urine; ref Lintz, 1981; cited from earlier work
[9] = dogs, after tramadol administration; ref Kukanich, 2011; Giorgi, 2009; cited from earlier work
[10] = tested on: μ-opioid; conditions: in vitro testing; ref Gillen, 2000; cited from earlier work
[11] = biological target: T1, CYP2D15; format: in vitro ADME, canine; conditions: recombinant CYP2D15; (+)-M1 10 μM, (+)-M2 0.5 μM
[12] = tested on: (+)-M5 formation from (+)-M1 in pooled DLMs; assay: in vitro; conditions: dog
[13] = biological target: T2, CYP2C21 (Canis lupus familiaris, UniProt P56594); assay: in vitro; conditions: dog, recombinant enzyme
T2 sequence (P56594 1-487): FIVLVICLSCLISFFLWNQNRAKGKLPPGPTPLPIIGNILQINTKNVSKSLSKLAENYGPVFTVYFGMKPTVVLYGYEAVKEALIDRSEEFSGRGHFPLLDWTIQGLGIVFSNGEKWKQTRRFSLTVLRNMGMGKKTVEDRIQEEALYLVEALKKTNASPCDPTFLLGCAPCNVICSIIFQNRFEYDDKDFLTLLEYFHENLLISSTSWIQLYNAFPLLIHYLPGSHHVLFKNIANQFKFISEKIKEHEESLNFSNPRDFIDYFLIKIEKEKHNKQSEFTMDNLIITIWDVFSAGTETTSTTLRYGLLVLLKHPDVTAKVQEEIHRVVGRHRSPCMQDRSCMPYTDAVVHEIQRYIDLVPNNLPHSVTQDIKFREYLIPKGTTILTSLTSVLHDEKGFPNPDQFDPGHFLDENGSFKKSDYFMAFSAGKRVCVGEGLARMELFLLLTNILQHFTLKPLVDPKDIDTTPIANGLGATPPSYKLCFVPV

SMILES: CNCC1CCCCC1(O)c1cccc(OC)c1 (centres unmarked) [M2, N-desmethyltramadol]
- formation to metabolism ratio [1]: 3.1
- formation to metabolism ratio [2]: 1.7
- formation to metabolism ratio [3]: 2.9
- CSF to plasma concentration ratio [4]: 0.4

SMILES: C=C[C@H]1C[N@@]2CC[C@H]1C[C@@H]2[C@@H](O)c1ccnc2ccc(OC)cc12 [quinidine]
- inhibition at 5 min, 10 μM [5]: > 70%
- inhibition at 5 min, 10 μM [6]: > 70%

SMILES: CC(=O)N1CCN(c2ccc(OCC3COC(Cn4ccnc4)(c4ccc(Cl)cc4Cl)O3)cc2)CC1 (centres unmarked) [ketoconazole]
- IC50 [7]: 470 nM

SMILES: CN(C)C[C@H]1CCCC[C@]1(O)c1cccc(O)c1 [M1, O-desmethyltramadol]
- formation to metabolism ratio [1]: 42
- formation to metabolism ratio [2]: 1926
- formation to metabolism ratio [3]: 71
- CSF to plasma concentration ratio [4]: 0.3

SMILES: CNCC1CCCCC1(O)c1cccc(O)c1 (centres unmarked) [M5, N,O-didesmethyltramadol]
- M5 and M5 conjugates as a percentage of total metabolites in urine [8]: 43%
- plasma concentration higher than M1 concentrations [9]: about 20 fold
- weaker μ-opioid agonist efficacy and potency compared with M1 [10]: about 30 times
- CSF to plasma concentration ratio [4]: less than 0.1
- CSF to plasma ratio less than M1 [4]: 3 fold

SMILES: CNCC1CCCCC1(O)c1cccc(OC)c1 (single isomer, unassigned; (+)) [(+)-M2, (+)-N-desmethyltramadol]
- Km ([1]; Dog 10 liver microsomes): 0.46 µM
- Vmax ([1]; Dog 10 liver microsomes): 27 pmol/min/mg protein
- Km ([1]; Dog 31 liver microsomes): 0.39 µM
- Vmax ([1]; Dog 31 liver microsomes): 23 pmol/min/mg protein
- Km ([1]; Dog 46 liver microsomes): 0.38 µM
- Vmax ([1]; Dog 46 liver microsomes): 39 pmol/min/mg protein
- Km ([1]; pDLM (liver microsomes pooled from 59 dogs)): 0.56 µM
- Vmax ([1]; pDLM (pooled from 59 dogs)): 50 pmol/min/mg protein
- (+)-M5 formation rate (in words) ([1]; pooled dog liver microsomes (n = 59), (+)-M1 at 10 μM, (+)-M2 at 0.5 μM): highest activities
- formation rate of (+)-M5 (in words) [11]: only detected for CYP2D15
- (+)-M5 formation rate (in words) ([2]; pooled cat liver microsomes (n = 16), (+)-M1 at 10 μM, (+)-M2 at 0.5 μM): intermediate between human and DLMs

SMILES: Nc1ccc(S(=O)(=O)Nc2ccnn2-c2ccccc2)cc1 [sulfaphenazole]
- inhibition at 5 min, 100 μM [5]: < 50%
- inhibition at 5 min, 100 μM [6]: < 50%
- inhibition at 20 min, 100 μM [12]: > 50%
- inhibition at 20 min, 100 μM [13]: > 50%

SMILES: COc1cccc(C2(O)CCCCC2CN(C)C)c1 (centres unmarked) [tramadol, reference compound]
- CSF to plasma concentration ratio [4]: 0.44
